Our source for the Emax, EC50 and Activity values is ChEMBL document CHEMBL4808171, “Structure-Activity Relationship Study and Biological Evaluation of 2-(Disubstituted phenyl)-indole-5-propanoic Acid Derivatives as GPR40 Full Agonists” (J Med Chem, 2021).

Molecules are shown by their SMILES. Activity calls are given as the source filed them. The calls are words filed in the database; no cut-off is given here.

Assay [1] has as its target Free fatty acid receptor 1 (Homo sapiens, UniProt O14842). The assay is described as follows: Agonist activity at GPR40 (unknown origin) expressed in CHO cells co-expressing luc2P/SRE assessed as firefly luciferase activity at 10 uM incubated for 24 hrs hrs by Bright-Glo based serum response element (SRE) luciferase reporter assay relative to TAK875. In kind it is functional, cell-based.

In assay [2] the target is T1, Peroxisome proliferator-activated receptor gamma (Homo sapiens) (UniProt P37231).
T1 sequence (whole entry): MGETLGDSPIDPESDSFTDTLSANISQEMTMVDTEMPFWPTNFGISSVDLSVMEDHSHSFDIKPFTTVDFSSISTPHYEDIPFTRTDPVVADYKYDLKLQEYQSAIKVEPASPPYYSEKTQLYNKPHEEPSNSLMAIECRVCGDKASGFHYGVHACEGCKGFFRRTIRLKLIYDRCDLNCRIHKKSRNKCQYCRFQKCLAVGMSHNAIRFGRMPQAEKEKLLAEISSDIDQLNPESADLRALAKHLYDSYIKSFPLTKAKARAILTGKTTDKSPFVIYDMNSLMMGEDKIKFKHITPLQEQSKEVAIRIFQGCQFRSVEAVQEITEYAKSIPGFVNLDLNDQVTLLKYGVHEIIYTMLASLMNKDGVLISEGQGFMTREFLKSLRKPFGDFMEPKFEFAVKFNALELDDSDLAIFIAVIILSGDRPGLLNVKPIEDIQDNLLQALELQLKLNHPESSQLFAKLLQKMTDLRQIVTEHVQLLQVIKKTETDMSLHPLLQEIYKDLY
As to the kind of experiment: Agonist activity at human PPARgamma expressed in CHO cells assessed as increase in receptor transcriptional activity at 1 uM incubated for 24 hrs by dual luciferase reporter gene assay relative to rosiglitazone. In kind it is cell-based. Background: A reporter such as luciferase makes a cellular process visible.

Assay [3] has as its target T2, Peroxisome proliferator-activated receptor gamma (Homo sapiens, UniProt P37231).
T2 sequence (P37231 whole entry): T1 sequence (whole entry)
The assay is described as follows: Agonist activity at human PPARgamma expressed in CHO cells assessed as increase in receptor transcriptional activity incubated for 24 hrs by dual luciferase reporter gene assay. In kind it is cell-based.

The test system of assay [4] is STC1. As to the kind of experiment: Induction of GLP-1 secretion in […] STC1 cells at 100 uM after 1 hrs by ELISA. In kind it is functional, cell-based. (In an ELISA, binding on a coated surface is turned into a signal by an enzyme label.)

Sequence of Free fatty acid receptor 1 (O14842 whole entry): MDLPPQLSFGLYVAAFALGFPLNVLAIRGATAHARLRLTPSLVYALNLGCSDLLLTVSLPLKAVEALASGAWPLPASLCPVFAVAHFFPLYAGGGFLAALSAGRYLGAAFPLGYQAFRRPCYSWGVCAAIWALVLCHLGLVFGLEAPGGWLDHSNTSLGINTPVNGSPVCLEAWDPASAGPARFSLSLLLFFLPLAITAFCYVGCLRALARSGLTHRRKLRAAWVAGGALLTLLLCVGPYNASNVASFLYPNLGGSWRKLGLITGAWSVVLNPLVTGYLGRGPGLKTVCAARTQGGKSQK

Turning to `O=C(O)CCc1ccc2[nH]c(-c3cccc(Cl)c3Cl)cc2c1`, the Emax in assay [1] (filed as agonist) is 81.2%; in assay [2], 12.8%.
`Cc1cc(Cl)ccc1-c1cc2cc(CCC(=O)O)ccc2[nH]1`: the figures for the Emax in assay [1] (filed as agonist) and in assay [2] (filed as agonist) were 109% and 104%, respectively. Also, in assay [3] (read-out: EC50), the EC50 (as a rule, the concentration needed to bring the measured effect to its halfway point) worked out at 27.8 µM.
For `O=C(O)CCc1ccc2[nH]c(-c3c(Cl)cccc3Cl)cc2c1`, the Emax came out at 78.3% in assay [1] (filed as agonist) and 11.5% in assay [2].
For `Cc1cc(Br)ccc1-c1cc2cc(CCC(=O)O)ccc2[nH]1`, in that order: 95.3% and 30.6%.
Turning to `Cc1c(Cl)cccc1-c1cc2cc(CCC(=O)O)ccc2[nH]1`, the Emax in assay [1] (filed as agonist) came out at 109%. In addition, the EC50 entry in assay [3] (cho) is “Not Active”.
As to `CCCCC/C=C\C/C=C\CCCCCCCC(=O)O`, in assay [4], the outcome was Active.
Consider `Cc1ccc(C)c(-c2cc3cc(CCC(=O)O)ccc3n2C)c1`, for which the Emax in assay [1] came out at 20.3%; in assay [2], 0.01%.
Consider `Cc1cccc(C)c1-c1cc2cc(CCC(=O)O)ccc2[nH]1`, for which the Emax came out at 69.5% in assay [1] (filed as agonist) and 0.52% in assay [2].
Turning to `Cc1ccc(Cl)cc1-c1cc2cc(CCC(=O)O)ccc2[nH]1`, the Emax came out at 35% in assay [1] and 18.3% in assay [2].
In the same order, the values of `O=C(O)CCc1ccc2[nH]c(-c3ccc(Cl)cc3C(F)(F)F)cc2c1` are 7.67% and 15.9%.
In the same order, the values of `O=C(O)CCc1ccc2[nH]c(-c3ccncc3Cl)cc2c1` are 24.7% and 0.19%.
In the same order, the values of `O=C(O)CCc1ccc2[nH]c(-c3cc(Cl)ccc3Cl)cc2c1` are 22.8% and 2.69%.
Regarding `O=C(O)CCc1ccc2[nH]c(-c3ccc(Cl)cc3F)cc2c1`, the Emax in assay [1] worked out at 2.18%; in assay [2] it was 3.64%.
Take `O=C(O)CCc1ccc2[nH]c(-c3ccc(Cl)cc3Cl)cc2c1`: the Emax in assay [1] (filed as agonist) came out at 48%; in assay [2], 5.39%.
As for `O=C(O)CCc1ccc2[nH]c(-c3cccc(Cl)c3F)cc2c1`, the Emax worked out at 6.81% in assay [1] and 18.2% in assay [2].
For the compound `Cc1cc(F)ccc1-c1cc2cc(CCC(=O)O)ccc2n1C`, the Emax was 16.9% in assay [1] and 6.32% in assay [2].
`Cc1ccc(-c2cc3cc(CCC(=O)O)ccc3[nH]2)c(C)c1`: the Emax in assay [1] (filed as agonist) stood at 61.8%; in assay [2], 2.51%.
